Source: patent publication US10501479B2, “Benzenesulfonyl-asymmetric ureas and medical uses thereof” (HELSINN HEALTHCARE SA, priority 2016, dated 2019)
Where “and” joins values, the source holds several entries; their conditions need not be identical. Equal entries are not always repeated. Where two headings read alike, the source gives them in different places.

Key:
[1] = Plasma protein binding (PPB), human; assay type: in vitro ADME; details: read-out: PPB (H)
[2] = target: T1, recombinant human ghrelin receptor (HEK293/GRLN) (Homo sapiens, UniProt Q92847); assay: Ghrelin inverse agonist potency (EC50) with IP-1 (IP-One HTRF) assay; assay type: cell-based; details: IP-1 assay
T1 construct: expressed in transfected cells
Outline: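 HEK293/GRLN cells were seeded 18-22 hours before the test, then exposed to compound in stimulation buffer for 1 hour at 37° C, 5% CO2. IP-1 was detected by IP-One HTRF (IP1-d2 plus Tb-cryptate, 1 hour RT), reading 620 and 665 nm; the inverse agonist EC50 was derived from this.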

[3] = Metabolic stability in human liver microsomes; assay type: in vitro ADME
Outline: (§1)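 Parent compound was measured by LC-MS/MS at 0, 10, 30 and 90 min after NADPH-initiated incubation with liver microsomes at 37 °C. Buffer was 100 mM potassium phosphate, pH 7.4; time-zero concentration was taken before NADPH addition.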

[4] = Metabolic stability in mouse liver microsomes; assay type: in vitro ADME
Outline: as §1

[5] = Metabolic stability in rat liver microsomes; assay type: in vitro ADME
Procedure: (§2) Metabolic Stability Study
(§3) The metabolic stability of compounds in human, dog, rat and mouse liver microsomes was performed according the experimental conditions reported below:
(§4) • a) Prepare the following 5 stock solutions: • 1. Test compound stock solutions: dilute 10 mM solution of dextromethorphan (Dtr) in DMSO, 10 mM solution of diphenhydramine (DPA) in DMSO, 10 mM solution of omeprazole (Ome) in DMSO, 10 mM solution of verapamil (Ver) in DMSO, and 10 mM of an inverse agonist compound in DMSO to 0.25 mM solution each with acetonitrile/water (70/30). • 2. Buffer: 100 mM potassium phosphate Buffer (PBS) at pH 7.4 • 3. Liver microsomes (20 mg/ml): Thaw in 37° C. water bath quickly • 4. 2000 μL: of NADPH regenerating system (1.3 mM). Place this system on ice before use:
(§5) • 5. […] The test compound concentration in the wells, measured by LC-MS/MS, represents the concentration at time=0. • f) To determine the test compound concentration when t≠0, pre-incubate the NADPH regenerating system and the incubation plate containing the remaining 320 μL of incubation mixture (microsomes protein and test compound) for 5 minutes at 37° C. • g) Start the incubation reaction by adding 80 μL NADPH regenerating system to each well containing the remaining 320 μL incubation mixture. • h) After 10 min., 30 min., and 90 min. of incubation at 37° C., transfer 100 μL of the incubation mixture (microsomes protein, test compound, and NADPH) into the wells of a stop plate pre-filled with 300 μL of the cold quench solution. Shake well. • i) Centrifuge the stop plate at 5000×g for 10 minutes. Collect and dilute the supernatant 3 times with distilled water. Sample and analyze the test compound concentration for all the wells by LC-MS/MS. Animal PK Studies via i.v. (intravenous), p.o. (orally) and s.c. (subcutaneous) administrations

[6] = Animal PK study in mouse via i.v., p.o. and s.c. administration; assay type: in vivo
Outline: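 Single i.v. (tail vein), s.c. (neck scruff) or p.o. (gavage) dose to mice or rats; oral vehicle 1–5% DMSO/0.5% methylcellulose, i.v./s.c. vehicle 1–5% DMSO in 20% HP-β-cyclodextrin. Plasma sampled 0.083 (i.v./s.c.) or 0.25 to 24 h, analyzed by LC-MS/MS.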

[7] = target: T2, GHSR-1a (HEK293/GHSR1a cell line) (Homo sapiens, UniProt Q92847); assay: Ghrelin antagonist potency (IC50) with calcium FLIPR assay, ghrelin 10 nM; assay type: cell-based
T2 construct: expressed in transfected cells; host or cells: HEK293/GHSR1a cell line
Outline: (§6)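 Dye preload 30-60 min, RT or 37° C; compound in DMSO. Agonist mode: compound at t=20 sec, Ca2+ read 2 min. Antagonist mode: compound + ghrelin 10 nM at t=20 sec, 2 min read. EC50/IC50 from dose-response curves.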

[8] = Plasma protein binding (PPB), mouse; assay type: in vitro ADME
[9] = Metabolic stability in dog liver microsomes; assay type: in vitro ADME
Procedure: as §2, §3, §4, §5

male C57BL/6J mice = assay: Food intake test in mouse (GHSR1a inverse agonists), cumulative food intake at 1, 2, 4, 8 and 24 hrs; assay type: in vivo
Procedure: Evaluation of Inverse Agonist on Food Intake Test in Mouse:
Male C57BL/6J mice, 18-22 g body weight, were fasted overnight (16 h before compound administration) and placed in a regular light dark cycle (6:00-18:00 light/18:00-6:00 dark). After 1 wk acclimation, animals were sorted into two groups (n=6 each, 2 per cage) based on body weight. Animals in group one were be treated with vehicle and animals in group 2 were treated with the test agent (n=6 for each group). The cumulative food intake was evaluated at 1, 2, 4, 8 and 24 hrs after drug or vehicle treatment. Food intake was measured by subtracting uneaten food from the initial premeasured food.
Food Intake Study—Evaluation of GHSR1a inverse agonists on Food Intake Test in Mouse:
Twelve male C57BL/6J mice, weighing 18-22 g each, were fasted overnight (16 h before compound administration) and placed in a regular light dark cycle (6:00-18:00 light/18:00-6:00 dark). After 1 week acclimation, animals were sorted into two groups (n=6 each, 2 per cage) based on body weight. Animals in group one were treated with carrier minus the test compound. (control group) and animals in group 2 were treated with carrier with the test compound (experimental group). The cumulative food intake was evaluated at 1, 2, 4, 8 and 24 hrs after experimental or control treatment. Food intake was measured by subtracting uneaten food from the initial premeasured food.

[10] = Plasma protein binding (PPB), rat; assay type: in vitro ADME; details: read-out: PPB (R) (converted)
[11] = Plasma protein binding (PPB), human; assay type: in vitro ADME; details: read-out: PPB (H) (converted)
[12] = Plasma protein binding (PPB), mouse; assay type: in vitro ADME; remark: listed apart in the source
[13] = Animal PK study in rat via i.v., p.o. and s.c. administration; assay type: in vivo; details: rat, i.p.
[14] = target: T2, GHSR-1a (HEK293/GHSR1a cell line); assay: Ghrelin agonist potency (EC50) with calcium FLIPR assay; assay type: cell-based; details: HEK293/GHSR1a, read-out: Activity EC50/EMax: EC50 (ghrelin agonist potency)
Outline: as §6

[15] = inverse agonist potency, read-out: EC50 (Activity)
[16] = ghrelin antagonist potency, read-out: IC50 (Activity)
[17] = HEK293/GRLN, read-out: Activity EC50 (ghrelin inverse agonist potency)
[18] = HEK293/GHSR1a, ghrelin 10 nM, read-out: Activity IC50 (ghrelin antagonist potency)

T2 sequence (Q92847 whole entry): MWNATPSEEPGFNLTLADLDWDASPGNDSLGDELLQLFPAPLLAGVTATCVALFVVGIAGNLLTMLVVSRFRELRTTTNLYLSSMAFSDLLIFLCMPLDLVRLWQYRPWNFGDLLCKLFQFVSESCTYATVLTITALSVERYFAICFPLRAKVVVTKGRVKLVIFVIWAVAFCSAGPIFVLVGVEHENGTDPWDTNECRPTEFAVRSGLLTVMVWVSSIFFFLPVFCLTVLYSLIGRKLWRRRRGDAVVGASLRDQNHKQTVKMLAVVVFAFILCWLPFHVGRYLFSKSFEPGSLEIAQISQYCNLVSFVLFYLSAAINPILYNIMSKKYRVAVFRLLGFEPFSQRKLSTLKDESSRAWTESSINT
T1 sequence (Q92847 whole entry): as above

Compound	fraction unbound [1]	EC50 [2, 15]	Metabolic Stability Study H = human [3]	Metabolic Stability Study M = mouse [4]	Metabolic Stability Study R = rat [5]	PK F [6]	PK CLiv ([6]; i.v.)	PK Vdiv ([6]; i.v.)	PK t1/2iv ([6]; i.v.)	PK CLpo ([6]; p.o.)	PK Vdpo ([6]; p.o.)	PK t1/2po ([6]; p.o.)	IC50 [7, 16]	fraction unbound [8]	Metabolic Stability Study D = dog [9]	also measured
C[C@H](NC(=O)Nc1ccc(S(=O)(=O)Nc2ccc(CC(C)(C)N)cc2)cc1)c1ccc(-c2cnccn2)c(Cl)c1Cl [H0906, (S)-N-(4-(2-amino-2-methylpropyl)phenyl)-4-(3-(1-(2,3-dichloro-4-(pyrazin-2-yl)phenyl)ethyl)ureido) benzenesulfonamide]	0.0016	6.8 nM	19.9 µL/min/mg	24.4 µL/min/mg	13.6 µL/min/mg	0.1%	3 mL/min/kg	0.27 L/kg	1.03 h	3991.2 mL/min/kg	479.77 L/kg	1.39 h	18.9 nM	0.0004		
CNC(C)(C)Cc1ccc(NS(=O)(=O)c2ccc(NC(=O)N[C@@H](C)c3ccc(-c4cnccn4)c(Cl)c3Cl)cc2)cc1 [H0941, (S)-4-(3-(1-(2,3-dichloro-4-(pyrazin-2-yl)phenyl)ethyl)ureido)-N-(4-(2-methyl-2-(methylamino)propyl)phenyl) benzenesulfonamide]	0.0002	2.8 nM	47.7 µL/min/mg	66.2 µL/min/mg	36.2 µL/min/mg								7.7 nM	0.0005	48.2 µL/min/mg	
C[C@H](NC(=O)Nc1ccc(S(=O)(=O)Nc2ccc(CC(C)(C)N(C)C)cc2)cc1)c1cccc(Cl)c1Cl [H0967, (S)-4-(3-(1-(2,3-dichlorophenyl)ethyl)ureido)-N-(4-(2-(dimethylamino)-2-methylpropyl)phenyl) benzenesulfonamide]		4.7 nM	38.2 µL/min/mg	58 µL/min/mg		0.2%	39 mL/min/kg	8.62 L/kg	2.56 h	11620 mL/min/kg	2326.2 L/kg	2.31 h	16 nM			Food Intake Study (male C57BL/6J mice; 5 mg/kg sc fasted mice): 30 mg/kg po fasted - inh 5 mg/kg sc fasted - inh; Food Intake Study (male C57BL/6J mice; 30 mg/kg po fasted mice): 30 mg/kg po fasted - inh 5 mg/kg sc fasted - inh
CC(C)(N)Cc1ccc(NS(=O)(=O)c2ccc(NC(=O)NCc3cccc(Cl)c3Cl)cc2)cc1 [H0968, N-(4-(2-amino-2-methylpropyl)phenyl)-4-(3-(2,3-dichlorobenzyl)ureido) benzenesulfonamide]		5.7 nM	32.5 µL/min/mg	27.4 µL/min/mg									44 nM			Food Intake Study (male C57BL/6J mice; 30 mg/kg po fasted mice): 30 mg/kg po fasted - inh
COc1ccc([C@H](C)NC(=O)Nc2ccc(S(=O)(=O)Nc3ccc4c(c3)CCN(C)C4)cc2)c(Cl)c1Cl [H1017]	0.001	9.8 nM	11.5 µL/min/mg	30.5 µL/min/mg									72 nM	0.0003		
Cl.O=C(NCc1cccc(Cl)c1Cl)Nc1ccc(S(=O)(=O)Cc2ccc3c(c2)CNC3)cc1 [H1057, 1-(2,3-dichlorobenzyl)-3-(4-((isoindolin-5-ylmethyl)sulfonyl)phenyl)urea]	0.005	6.9 nM	12.6 µL/min/mg	10.8 µL/min/mg		1.6%	26.2 mL/min/kg	2.18 L/kg	0.96 h	1371 mL/min/kg	368.9 L/kg	3.11 h	19.3 nM	0.005		
C[C@H](NC(=O)Nc1ccc(S(=O)(=O)Cc2ccc3c(c2)CNC3)cc1)c1ccccc1 [H1215, (S)-1-(4-((isoindolin-5-ylmethyl)sulfonyl)phenyl)-3-(1-phenylethyl)urea]	0.097	4.6 nM	21 µL/min/mg	13.7 µL/min/mg	18.5 µL/min/mg								12.4 nM	0.093	16.6 µL/min/mg	fraction unbound [10]: 0.065
CC(c1ccccc1)N(C)C(=O)Nc1ccc(S(=O)(=O)Cc2ccc3c(c2)CN(C)C3)cc1 (stereo not shown) [H1381, 1-methyl-3-(4-(((2-methylisoindolin-5-yl)methyl)sulfonyl)phenyl)-1-(1-phenylethyl)urea]			60 µL/min/mg	68.1 µL/min/mg		20.64%									88.7 µL/min/mg	fraction unbound [11]: 0.0906; EC50 [2, 17]: 22.1 nM and 33.1 nM; fraction unbound [12]: 0.0854; PK CL p.o. ([6]; p.o.): 295 mL/min/kg; PK Vd p.o. ([6]; p.o.): 42.87 L/kg; Vd ([6]; plasma, iv, 5 mg/kg): 3.1 L/kg; clearance ([6]; plasma, iv, 5 mg/kg, i.v., read-out: PK CL i.v.): 63.8 mL/min/kg; half-life ([6]; plasma, po, 10 mg/kg, p.o., read-out: PK t1/2 p.o.): 1.68 h; IC50 [7, 18]: 480 nM and 257 nM
COc1cc(S(=O)(=O)Cc2ccc3c(c2)CNC3)ccc1NC(=O)NC(C)c1cccc(Cl)c1Cl.Cl (stereo not shown) [H1421, 1-(1-(2,3-dichlorophenyl)ethyl)-3-(4-((isoindolin-5-ylmethyl)sulfonyl)-2-methoxyphenyl)urea]			13.2 µL/min/mg	38.8 µL/min/mg												fraction unbound [11]: 0.0037; EC50 [2, 17]: 0.4 nM; half-life ([13]; plasma, ip, read-out: PK t1/2 i.p. (R)): 19 h; PK CL i.p. (R) [13]: 32.7 mL/min/kg; PK Vd i.p. (R) [13]: 54.56 L/kg; fraction unbound [12]: 0.0034; IC50 [7, 18]: 1.8 nM; EC50 [14]: > 50000 nM
